Drawing on patent publication US12552772B2, “2-pyrazole anilines and related analogs for inhibiting YAP/TAZ-TEAD” (KATHOLIEKE UNIVERSITEIT LEUVEN, priority 2021, dated 2026), this text covers EC50 for 27 molecules.

For orientation: EC50 means the midpoint of the concentration-response curve. Low readings indicate greater potency, high ones weaker potency.

Common to all, as to format: cell-based
One experiment deals with H2452. Briefly: Mesothelioma cell line proliferation assay, H2452. The settings on record: Homo sapiens, NCI-H2452; H2452 cells.
A further experiment concerns NCI-H226. Briefly: Mesothelioma cell line proliferation assay (ATPlite), NCI-H226. Conditions: Homo sapiens, 144 h; NCI-H226 cells, 6 days, ATPlite cell viability. In outline: (§1)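 Mesothelioma cells seeded at 1500 cells/well in RPMI 1640 with 10% FBS, incubated overnight, then treated with compound dose-response in DMSO for 6 days at 37° C, 5% CO2. Viability read by ATPlite luminescence; percent inhibition used to derive EC50.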

The subject of experiment [1] is YAP/TAZ-TEAD transcription. The experiment is described as follows: Reporter gene assay for measuring the inhibition of YAP/TAZ-TEAD transcription (TEAD-responsive element luciferase reporter in Hek293T cells). The settings on record: Homo sapiens, HEK-293T, 24 hours incubation. In outline:
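Percent inhibition, scaled between vehicle (0%) and a positive control inhibitor (100%), came from SteadyLite luciferase signal after 24 h compound exposure at 37 °C/5% CO2. Cells: Hek293T transiently carrying a TEAD-responsive luciferase reporter; EC50 derived.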
A general note: Reporter assays use an easily measured gene product as a stand-in for the process of interest.

Another experiment concerns NCI-H2052. The experiment is described as follows: Mesothelioma cell line proliferation assay (ATPlite), NCI-H2052. The settings on record: Homo sapiens, NCI-H2052, 144 h, NCI-H2052 cells, 6 days, ATPlite cell viability. In outline: as §1
Background: ATP-based viability assays read luminescence as a measure of living cells.

Bounds are passed on as bounds.

For the molecule `CNS(=O)(=O)CCNc1ccc(-c2ccc(F)cc2)cc1-c1ccn(Cc2cccnc2)n1` [compound 086, 2-((4′-fluoro-3-(1-(pyridin-3-ylmethyl)-1H-pyrazol-3-yl)-[1,1′-biphenyl]-4-yl)amino)-N-methylethane-1-sulfonamide], the values for the EC50 (in the experiment on H2452; in the experiment with NCI-H226; in experiment [1]) were greater than 10 µM, 1000 to 10000 nM and less than 1000 nM, respectively.
For `CNS(=O)(=O)CCNc1ccc(-c2ccc(C(F)(F)F)cc2)cc1-c1ccn(Cc2cccnc2)n1` [compound 087, N-methyl-2-((3-(1-(pyridin-3-ylmethyl)-1H-pyrazol-3-yl)-4′-(trifluoromethyl)-[1,1′-biphenyl]-4-yl)amino)ethane-1-sulfonamide], the EC50 is greater than 10 µM in the experiment on H2452, 1000 to 10000 nM in the experiment with NCI-H226 and less than 1000 nM in experiment [1].
Regarding `CNS(=O)(=O)CCNc1ccc(-c2ccc(F)c(F)c2)cc1-c1ccn(Cc2cccnc2)n1` [compound 093, 2-((3′,4′-difluoro-3-(1-(pyridin-3-ylmethyl)-1H-pyrazol-3-yl)-[1,1′-biphenyl]-4-yl)amino)-N-methylethane-1-sulfonamide], the EC50 in the experiment on H2452 is greater than 10 µM; in the experiment with NCI-H226, less than 1000 nM; in experiment [1] it was less than 1000 nM.
As for `C=CC(=O)NCc1ccc(-c2ccc(F)cc2)cc1-c1cn(C)nn1` [compound 184, N-((4′-fluoro-3-(1-methyl-1H-1,2,3-triazol-4-yl)-[1,1′-biphenyl]-4-yl)methyl)acrylamide], the EC50 (in the experiment with NCI-H2052; in the experiment with NCI-H226; in experiment [1]) was less than 1000 nM each time.
Take `C=CC(=O)NCc1ccc(-c2ccc(F)cc2)cc1-c1cn(C(F)F)nn1` [compound 185, N-((3-(1-(difluoromethyl)-1H-1,2,3-triazol-4-yl)-4′-fluoro-[1,1′-biphenyl]-4-yl)methyl)acrylamide]: the values for the half-maximal effective concentration (EC50) (in the experiment with NCI-H2052; in the experiment on NCI-H226; in experiment [1]) were 1000 to 10000 nM, less than 1000 nM and less than 1000 nM, respectively.
`C=CC(=O)NCc1ccc(-c2ccc(F)cc2)cc1-c1cnn(C)n1` [compound 187, N-((4′-fluoro-3-(2-methyl-2H-1,2,3-triazol-4-yl)-[1,1′-biphenyl]-4-yl)methyl)acrylamide]: the EC50 was 1000 to 10000 nM in the experiment on NCI-H2052, less than 1000 nM in the experiment with NCI-H226 and less than 1000 nM in experiment [1].
For the molecule `C=CC(=O)NCc1ccc(-c2ccc(F)cc2)cc1-c1nnn(C)n1` [compound 188, N-((4′-fluoro-3-(2-methyl-2H-tetrazol-5-yl)-[1,1′-biphenyl]-4-yl)methyl)acrylamide], the EC50 (in the experiment on NCI-H2052; with NCI-H226; in experiment [1]) was less than 1000 nM throughout.
`C=CC(=O)NCc1ccc(-c2ccc(F)cc2)cc1-c1nnn(C(F)F)n1` [compound 190, N-((3-(2-(difluoromethyl)-2H-tetrazol-5-yl)-4′-fluoro-[1,1′-biphenyl]-4-yl)methyl)acrylamide]: the EC50 with NCI-H2052 was 1000 to 10000 nM; with NCI-H226, less than 1000 nM; in experiment [1], less than 1000 nM.
On to `C=CC(=O)NCc1ccc(-c2ccc(F)cc2)nc1-c1ccn(C)n1` [compound 193, N-((6-(4-fluorophenyl)-2-(1-methyl-1H-pyrazol-3-yl)pyridin-3-yl)methyl)acrylamide], for which the EC50 (with NCI-H2052; in the experiment on NCI-H226; in experiment [1]) was less than 1000 nM each time.
As for `C=CC(=O)NCc1ccc(-c2ccccc2)nc1-c1ccn(C)n1` [compound 194, N-((2-(1-methyl-1H-pyrazol-3-yl)-6-phenylpyridin-3-yl)methyl)acrylamide], the EC50 (in the experiment on NCI-H2052; in the experiment with NCI-H226; in experiment [1]) was less than 1000 nM each time.
Take `C=CC(=O)NCc1ccc(-c2ccc(F)cc2)nc1-c1ccn(C(F)F)n1` [compound 198, N-((2-(1-(difluoromethyl)-1H-pyrazol-3-yl)-6-(4-fluorophenyl)pyridin-3-yl)methyl)acrylamide]: the EC50 (with NCI-H2052; in the experiment with NCI-H226; in experiment [1]) was less than 1000 nM throughout.
On to `C=CC(=O)NCc1ncc(-c2ccc(F)cc2)cc1-c1ccn(C)n1` [compound 201, N-((5-(4-fluorophenyl)-3-(1-methyl-1H-pyrazol-3-yl)pyridin-2-yl)methyl)acrylamide], for which the half-maximal effective concentration (EC50) (in the experiment with NCI-H2052; in the experiment with NCI-H226; in experiment [1]) was less than 1000 nM in each case.
Consider `C=CC(=O)NCc1ncc(-c2ccc(F)cc2)cc1-c1ccn(C2CC2)n1` [compound 202, N-((3-(1-cyclopropyl-1H-pyrazol-3-yl)-5-(4-fluorophenyl)pyridin-2-yl)methyl)acrylamide], for which the EC50 (in the experiment with NCI-H2052; in the experiment on NCI-H226; in experiment [1]) was less than 1000 nM each time.
On to `C=CC(=O)NCc1ncc(-c2ccc(F)cc2)cc1-c1ccn(C(F)F)n1` [compound 203, N-((3-(1-(difluoromethyl)-1H-pyrazol-3-yl)-5-(4-fluorophenyl)pyridin-2-yl)methyl)acrylamide], for which the half-maximal effective concentration (EC50) (in the experiment on NCI-H2052; in the experiment on NCI-H226; in experiment [1]) was less than 1000 nM each time.
For `C=CC(=O)NCc1cnc(-c2ccc(F)cc2)cc1-c1ccn(C)n1` [compound 205, N-((6-(4-fluorophenyl)-4-(1-methyl-1H-pyrazol-3-yl)pyridin-3-yl)methyl)acrylamide], the EC50 (with NCI-H2052; with NCI-H226; in experiment [1]) was less than 1000 nM throughout.
`C=CC(=O)NCc1cnc(-c2ccc(F)cc2)cc1-c1ccn(C2CC2)n1` [compound 206, N-((4-(1-cyclopropyl-1H-pyrazol-3-yl)-6-(4-fluorophenyl)pyridin-3-yl)methyl)acrylamide]: the EC50 (in the experiment on NCI-H2052; in the experiment with NCI-H226; in experiment [1]) was less than 1000 nM throughout.
With `C=CC(=O)NCc1cnc(-c2ccc(F)cc2)cc1-c1ccn(C(F)F)n1` [compound 207, N-((4-(1-(difluoromethyl)-1H-pyrazol-3-yl)-6-(4-fluorophenyl)pyridin-3-yl)methyl)acrylamide], the EC50 (in the experiment on NCI-H2052; with NCI-H226; in experiment [1]) was less than 1000 nM each time.
As for `C=CC(=O)NCc1cnc(-c2cccc(F)c2)cc1-c1ccn(C(F)F)n1` [compound 211, N-((4-(1-(difluoromethyl)-1H-pyrazol-3-yl)-6-(3-fluorophenyl)pyridin-3-yl)methyl)acrylamide], the figures for the EC50 (in the experiment on NCI-H2052; in the experiment with NCI-H226; in experiment [1]) were 1000 to 10000 nM, less than 1000 nM and less than 1000 nM, respectively.
Turning to `C=CC(=O)NCc1cnc(-c2cccc(Cl)c2)cc1-c1ccn(C(F)F)n1` [compound 213, N-((6-(3-chlorophenyl)-4-(1-(difluoromethyl)-1H-pyrazol-3-yl)pyridin-3-yl)methyl)acrylamide], the concentration giving a half-maximal response (EC50) with NCI-H2052 is 1000 to 10000 nM; in the experiment with NCI-H226, less than 1000 nM; in experiment [1], less than 1000 nM.
As for `C=CC(=O)NCc1cnc(-c2cccc(C(F)(F)F)c2)cc1-c1ccn(C(F)F)n1` [compound 215, N-((4-(1-(difluoromethyl)-1H-pyrazol-3-yl)-6-(3-(trifluoromethyl)phenyl)pyridin-3-yl)methyl)acrylamide], the values for the EC50 (in the experiment on NCI-H2052; in the experiment with NCI-H226; in experiment [1]) were 1000 to 10000 nM, less than 1000 nM and less than 1000 nM, respectively.
Regarding `C=CC(=O)NCc1cnc(N2CCC(F)(F)CC2)cc1-c1ccn(C(F)F)n1` [compound 221, N-((4-(1-(difluoromethyl)-1H-pyrazol-3-yl)-6-(4,4-difluoropiperidin-1-yl)pyridin-3-yl)methyl)acrylamide], the EC50 in the experiment with NCI-H2052 is 1000 to 10000 nM; in the experiment with NCI-H226 it was less than 1000 nM; in experiment [1], less than 1000 nM.
As to `C=CC(=O)NCc1cc(-c2ccc(F)cc2)cc(-c2cnn(C(F)F)c2)n1` [compound 227, N-((6-(1-(difluoromethyl)-1H-pyrazol-4-yl)-4-(4-fluorophenyl)pyridin-2-yl)methyl)acrylamide], the results for the EC50 (in the experiment with NCI-H2052; in the experiment on NCI-H226; in experiment [1]) were greater than 10000 nM, less than 1000 nM and less than 1000 nM, respectively.
On to `C=CC(=O)NCc1cnc(-c2ccc(F)cc2)cc1-n1ccc(C)n1` [compound 240, N-((6-(4-fluorophenyl)-4-(3-methyl-1H-pyrazol-1-yl)pyridin-3-yl)methyl)acrylamide], for which the concentration giving a half-maximal response (EC50) (in the experiment with NCI-H2052; in the experiment with NCI-H226; in experiment [1]) was less than 1000 nM in each case.
For the molecule `C=CC(=O)NCc1ccc(-c2ccc(F)cc2)cc1-n1ccc(C)n1` [compound 241, N-((4′-fluoro-3-(3-methyl-1H-pyrazol-1-yl)-[1,1′-biphenyl]-4-yl)methyl)acrylamide], the concentration for a half-maximal effect (EC50) was 1000 to 10000 nM with NCI-H2052, less than 1000 nM in the experiment on NCI-H226 and less than 1000 nM in experiment [1].
`C=CC(=O)NCc1cnc(-c2ccc(F)cc2)cc1-n1cc(C)cn1` [compound 243, N-((6-(4-fluorophenyl)-4-(4-methyl-1H-pyrazol-1-yl)pyridin-3-yl)methyl)acrylamide]: the figures for the EC50 (with NCI-H2052; in the experiment with NCI-H226; in experiment [1]) were 1000 to 10000 nM, less than 1000 nM and less than 1000 nM, respectively.
Regarding `C=CC(=O)NCc1cnc(-c2ccc(F)cc2)cc1-n1ncc(C)n1` [compound 244, N-((6-(4-fluorophenyl)-4-(4-methyl-2H-1,2,3-triazol-2-yl)pyridin-3-yl)methyl)acrylamide], the EC50 (with NCI-H2052; in the experiment with NCI-H226; in experiment [1]) was less than 1000 nM throughout.
For `C=CC(=O)NCc1cnc(-c2ccc(F)cc2)nc1-c1ccn(C(F)F)n1` [compound 254, N-((4-(1-(difluoromethyl)-1H-pyrazol-3-yl)-2-(4-fluorophenyl)pyrimidin-5-yl)methyl)acrylamide], the EC50 (in the experiment on NCI-H2052; with NCI-H226; in experiment [1]) was less than 1000 nM each time.
